Results: patent publication US20050192247A1, “Method of treating cancers” (priority 2004, published 2005)
Where a name gives a salt, the structure may show the parent alone.

Experiments:
[1] = test system: A549 human lung cancer cells; test: A549 human lung cancer xenograft mouse model; format: in vivo; settings: for tumor growth during treatment: eight treatments
Procedure: The anti-tumor activity of β-lapachone is examined using a human lung cancer xenograft model. Briefly, athymic female nude mice (Ncr) are inoculated subcutaneously with 4×10^6 A549 human lung cancer cells, and the tumors are allowed to grow to approximately 50 mm^3 in size. The animals are randomized into five groups of seven animals per group, and treated intraperitoneally every three days with one of the following five regimens: β-lapachone at 40 mg/kg in 40% hydroxypropy-β-cyclodextran (“HPBCD”); β-lapachone at 60 mg/kg in 40% HPBCD; gemcitabine (GEMZAR®) at 120 mg/kg in PBS; β-lapachone (40 mg/kg)+gemcitabine (120 mg/kg); or vehicle control (40% HPBCD). The combination therapy group receives treatments with β-lapachone and gemcitabine at the indicated concentrations on the same day, every three days. Mice receive a total of eight treatments. Mean tumor volume is analyzed; data points in FIG. 2 represent the arithmetic mean+/−SEM of five tumors.

[2] = test system: Human pancreatic cancer Panc-1 cells; test: Panc-1 human pancreatic cancer xenograft mouse model; format: in vivo; settings: post-treatment observation 19 days
Procedure: Human pancreatic cancer Panc-1 cells (2×10^6) are implanted subcutaneously into male athymic nude (Ncr) mice. Following establishment of tumor nodules (about 50 mm^3), the animals are randomized into four groups of five animals per group. The animals are treated intraperitoneally with one of four treatments: β-lapachone at 40 mg/kg in 40% hydroxypropy-β-cyclodextran; gemcitabine (Gemzar®) at 120 mg/kg (in PBS); β-lapachone (40 mg/kg)+gemcitabine (120 mg/kg); or vehicle control. The mice receive a total of ten treatments, administered every three days (on study day 5, 8, 11, 14, 17, 20, 31, 34, 37, and 40). The combination therapy group receives β-lapachone and gemcitabine on the same day in each treatment. Following treatment, the animals are observed for an additional 19 days. Tumors are measured throughout the treatment and post-treatment periods.

[3] = test system: CEM T lymphoblastoid cells; settings: cited from earlier work
[4] = in vivo; cited from earlier work
[5] = test system: ovary, colon, and pancreatic cancer cells; settings: through induction of caspase; cited from earlier work
[6] = test system: human ovarian cancer, human prostate cancer, human breast cancer, human multiple myeloma; settings: cited from earlier work
[7] = cited from earlier work
[8] = test system: human breast cancer cells; settings: cited from earlier work

SMILES | tumor growth during treatment ([1]; gemcitabine 120 mg/kg intraperitoneally every three days) | tumor re-growth after termination of treatment ([2]; gemcitabine 120 mg/kg) | internucleosomal DNA fragmentation [3] | tolerability [4] | tumor growth during treatment ([1]; β-lapachone 60 mg/kg intraperitoneally every three days) | retardation of tumor growth, 60 mg/kg compared with 40 mg/kg ([1]; β-lapachone 60 mg/kg versus 40 mg/kg) | type of cell death induced [5] | anti-tumor effect as a single agent [6] | water solubility [7] | type of cell death induced [8] | tumor re-growth after termination of treatment ([2]; β-lapachone 40 mg/kg)
Nc1ccn([C@@H]2O[C@H](CO)[C@@H](O)C2(F)F)c(=O)n1 [gemcitabine, 2′-deoxy-2′,2′-difluorocytidine monohydrochloride (β-isomer), reference compound] | retarded tumor growth | 400% | induces internucleosomal DNA fragmentation | – | – | – | – | – | – | – | –
CC1(C)CCC2=C(O1)c1ccccc1C(=O)C2=O [β-lapachone, 3,4-dihydro-2,2-dimethyl-2H-naphtho[1,2-b]pyran-5,6-dione] | – | – | – | generally well-tolerated | retarded tumor growth | more effective at retarding tumor growth | apoptosis | decrease the number of tumors, reduce tumor size, or increase survival time | non-water soluble | induces necrosis | no significant re-growth
